Assay results taken from ChEMBL document CHEMBL3507680, “University of Dundee, Gates Library screen for HepG2 cell viability”.

Test: Human HepG2 cell viability assay in 384 well format
Assay type: toxicity, cell-based
Design: dose 125 nL, time 70.5 hour; concentration not given beside the values
Conditions: HepG2 cells, read-out: Inhibition

| Compound | cytotoxicity at 70.5 h |
| --- | --- |
| O=C1CCC(=O)c2oc3ccccc3c2N1 | -5.85% |
| NC(=O)c1nc(-c2cccc(Cl)c2)oc1N | -14.1% |
| CC(C)NC(=O)N1CCN(S(C)(=O)=O)CC2(CNC(=O)C2)C1 (stereo not given) | -17.9% |
| O=C(c1cnccn1)N1CCn2cnc(COCC3CC3)c2C1 | 14.8% |
| CS(=O)(=O)NC[C@]12COC[C@H]1CN(C(=O)c1ccncn1)C2 | 15.5% |
| CS(=O)(=O)NC[C@]12COC[C@H]1CN(C(=O)c1cnccn1)C2 | 19.5% |
| O=C(NCC1CC1)C1CN(C(=O)c2cnccn2)CC12CCOCC2 (stereo not given) | -2.91% |
| COc1ccc(N2CCCC3(C2)CN(c2nncs2)CCO3)cc1 (stereo not given) | 1.09% |
| Cc1ccoc1C(=O)N1C[C@@H]2COC[C@]2(CNS(C)(=O)=O)C1 | -3.33% |
| CN(Cc1cn2c(n1)CN(C(=O)c1cccnc1)CC2)Cc1ccco1 | -2.78% |
| Cn1cc(C2CC3(CCN(C(=O)c4cccs4)CC3)NC2=O)cn1 (stereo not given) | 1.02% |
| O=C1NC2(CCN(C(=O)Cc3ccsc3)CC2)CC1c1ccccc1 (stereo not given) | 0.488% |
| CN(Cc1cn2c(n1)CN(C(=O)c1cccn1C)CC2)Cc1ccco1 | 9.36% |
| Cc1cccc(C(=O)N2CCn3cnc(COCC4CC4)c3C2)c1 | -5.71% |
| CN(Cc1cn2c(n1)CN(C(=O)C1CCCO1)CC2)Cc1ccco1 (stereo not given) | -3.64% |
| Cc1ncsc1CN1CC[C@H]2OCC[C@@]2(C(=O)N2CCCC2)C1 | -1.98% |
| Cc1cccc(C(=O)N2CCn3cnc(COCC4CC4)c3C2)n1 | -2.97% |
| CCOCC(=O)N1CCn2cc(CN(C)Cc3ccco3)nc2C1 | -0.359% |
| O=C(NCC1CC1)C1CN(C(=O)c2ccco2)CC12CCOCC2 (stereo not given) | -1.19% |
| Cc1occc1C(=O)N1CC(C(=O)N2CCOCC2)C2(CCOCC2)C1 (stereo not given) | 6.2% |
| Cc1ccc(CN2CCC3(CC2)CC(NC(=O)c2ccccn2)CO3)o1 (stereo not given) | -2.22% |
| Cc1csc([C@H]2C[C@@H]3CCN(C(=O)c4ccnnc4)C[C@H]3O2)n1 | -1.58% |

| Compound | cytotoxicity at 70.5 h |
| --- | --- |
| O=C(c1ccccc1)N1CC(C(=O)N2CCOCC2)C2(CCOCC2)C1 (stereo not given) | 7.01% |
| CN1CC(=O)N(c2cccc(F)c2)CC12CCN(Cc1ccco1)C2 (stereo not given) | -5.08% |
| CN1CC(=O)N(c2cccc(F)c2)CC12CCN(Cc1ccccn1)C2 (stereo not given) | -1.03% |
| CCC1=N[C@@]2(CC[C@@H]3CN(S(=O)(=O)CC(C)C)C[C@@H]32)C(=O)N1CC1CC1 | 0.026% |
| COCC1CN(C(=O)N2CCCC2)Cc2cnn(CC3CCCC3)c21 (stereo not given) | -1.96% |
| Cn1ncc2c1C(COCC1CC1)CN(C(=O)Cc1ccsc1)C2 (stereo not given) | -2.83% |
| CN(C)CC(=O)N1C[C@@H](Oc2ccccn2)[C@H]2OCCC[C@H]21 | 9.63% |
| O=C(Cc1ccsc1)N1CCn2cc(Cn3cncn3)nc2C1 | 2.98% |
| O=C(Cc1ccsc1)N1C[C@@H]2C[C@@H](c3nnc(C4CC4)o3)O[C@@H]2C1 | 4.61% |
| Cn1nccc1C(=O)N1CCCC2(CCN(c3ccsc3)C2=O)C1 (stereo not given) | 10.3% |
| Cc1nccc([C@@H]2C[C@@H]3CCN(Cc4cccs4)C[C@H]3O2)n1 | 4.44% |
| CNc1nnc(CCn2nc(C)c(Br)c2C)s1 | 19.6% |
| O=C(Cn1nc(C(F)(F)F)c(Cl)c1C1CC1)NN1CCOCC1 | 12.9% |
| CN(Cc1cnn(C)c1)C(=O)c1cc(C(F)(F)F)n(C)n1 | -15.3% |
| Cc1nnc(NC(=O)C(C)n2ncc(Br)c2C)s1 (stereo not given) | 24.3% |
| Cn1cc(Br)c(C(=O)NCCCn2cc(Cl)cn2)n1 | 0.918% |
| Cc1nc(NC(=O)C(C)n2ncc(Br)c2C)sc1C (stereo not given) | 1.11% |
| Cc1nn(CCC(=O)N2CCN(Cc3cnn(C)c3C)CC2)c(C)c1Br | 1.42% |
| CCn1cc(NC(=O)c2c(C)nn(C)c2C)c(C(N)=O)n1 | 19% |
| CCn1ncc(CN(C)C(=O)c2cc(C(F)(F)F)n(C)n2)c1C | -17.2% |
| CNC(=O)c1nn(C)cc1NC(=O)C(C)n1ncc(Cl)c1C (stereo not given) | -6.57% |
| CCn1ncc(Cl)c1CN(C)C(=O)CCn1ncc(Br)c1C | -18% |

| Compound | cytotoxicity at 70.5 h |
| --- | --- |
| CCn1cc(S(=O)(=O)NC2CCCC2)cn1 | -11.8% |
| COc1ccc(OC)c(C(C)NS(=O)(=O)c2cnn(C)c2)c1 (stereo not given) | -12% |
| CCS(=O)(=O)N1CCN(C(=O)c2ccc(Cn3cc(Br)cn3)cc2)CC1 | -6.35% |
| Cc1cccc(OCc2ccc(C(=O)N3N=CCC3(O)C(F)(F)F)o2)c1 (stereo not given) | 9.08% |
| Cn1nc(C(=O)N2CCOCC2)cc1C(=O)Nc1ncc(Cl)cc1Cl | 14.9% |
| FC(F)(F)c1cc(-c2cccs2)nc(N2CCN3CCCC3C2)n1 (stereo not given) | -13.6% |
| Cc1n[nH]c(C)c1S(=O)(=O)N(C)Cc1nn(C)c(Cl)c1Cl | 22.3% |
| Cc1nn(C)c(C)c1CN(C)S(=O)(=O)c1c(C)n[nH]c1C | -5.08% |
| CCN(Cc1c(C)nn(CC)c1C)S(=O)(=O)c1cn(C)nc1C | -2.98% |
| CCN(Cc1c(C)nn(CC)c1C)S(=O)(=O)c1cnn(C)c1C | 14.5% |
| CCN(Cc1c(C)nn(CC)c1C)S(=O)(=O)c1cnn(C)c1 | -6% |
| Cn1ncc(C(=O)O)c1C(=O)Nc1nc2ccccc2s1 | 14.7% |
| CCOc1ccc2nc(NC(=O)c3c(C(=O)O)cnn3C)sc2c1 | -14.2% |
| Cn1ncc(C(=O)O)c1C(=O)Nc1nc2ccc(Br)cc2s1 | 14.8% |
| COC(=O)c1cc(C2CC2)nc2c(C#N)cnn12 | 25% |
| CCn1ccc(-c2cc(C(=O)O)n3nc(C)c(Cl)c3n2)n1 | -9.11% |
| CCC(CCNC(=O)c1cc(C2CC2)nc2c1cnn2C)n1cccn1 (stereo not given) | -19.4% |
| CCC(=O)NCCNC(=O)c1nn(C)c(C)c1Cl | -11.9% |
| CCn1cc(-c2cc(C(F)(F)F)nc(NC3CCCC3)n2)c(C)n1 | -6.79% |
| CCOC(=O)CNC(=O)c1cc(-c2ccccc2)nc2ncnn12 | 1.18% |
| N#Cc1cn[nH]c1NCc1cc(Cl)cc(Cl)c1O | 17.4% |
| COc1cc(NCc2cccnc2)c(-c2nn[nH]n2)cc1OC | -11.1% |

| Compound | cytotoxicity at 70.5 h |
| --- | --- |
| COc1ccc(-c2cc(C3(O)CCCC3)on2)cc1 | 1.51% |
| Nc1nnc(Cn2nnc(-c3ccccc3F)n2)s1 | -12.8% |
| Nc1nnnn1NCc1cccc2ccccc12 | -11.8% |
| CCCC(C)(O)c1cc(C(N)=O)no1 (stereo not given) | -9.46% |
| Clc1cccc(-n2cnnn2)c1N1CCCCC1 | 29.1% |
| Clc1cccc(-n2cnnn2)c1N1CCOCC1 | -5.42% |
| COc1c(CC2CC(C(=O)O)=NO2)c(Br)c2c(c1OC)OCO2 (stereo not given) | -7.83% |
| COc1c(CC2CC(CO)=NO2)c(Br)c2c(c1OC)OCO2 (stereo not given) | -0.342% |
| COc1cc(CC2CC(c3ccc4c(c3)OCO4)=NO2)cc2c1OCO2 (stereo not given) | -9.64% |
| COc1cc(C2SCC(=O)Nc3[nH]ncc32)c(OC)c2c1OCO2 (stereo not given) | -12.7% |
| COc1c(C2CC(=O)Nc3[nH]ncc32)cc2c(c1OC)OCO2 (stereo not given) | -13.5% |
| O=C1CC(c2cccc(Cl)c2)c2snc(C(=O)O)c2N1 (stereo not given) | -5.92% |
| CC(=O)c1c(O)ccnc1C(F)(F)F | -3.79% |
| Cc1cc2ccccc2n1CC(=O)NCC(=O)N1CCOCC1 | -13.2% |
| O=C(c1cc(-c2cccs2)cs1)N1CCOCC1 | -8.23% |
| CCN1CCN(C(=O)c2cc(-c3cccs3)cs2)CC1 | 15.8% |
| O=C(NC1CCCC1)c1cc(Sc2ncccn2)ccn1 | -13.6% |
| Cc1cc(C(=O)Nc2cnn(CC(F)(F)F)c2)nc(N2CCOCC2)n1 | -13.4% |
| Cc1c(NC(=O)c2cccc(Br)c2)c(C(=O)N(C)C)nn1C | 22.7% |
| CCn1nc(C)c(C(=O)NCc2csc(C3CC3)n2)c1C | 1.51% |
| Cc1cccc2c1cnn2CCC(=O)NCc1csc(C2CC2)n1 | -8.07% |
| Cc1ccnn1CC(=O)Nc1cc(-c2ccncc2)[nH]n1 | -6.24% |

| Compound | cytotoxicity at 70.5 h |
| --- | --- |
| O=C(N1CCOCC1)[C@@]12CCO[C@@H]1CCN(C1CCCCC1)C2 | 47.3% |
| Cc1cccc(CN2CCC3(CCCN(C(=O)N4CCCC4)C3)C2=O)n1 (stereo not given) | 40% |
| CC(=O)NCC(=O)N1CCn2cc(CN(C)Cc3ccco3)nc2C1 | 2.22% |
| Cc1nnc(N2C[C@H]3OCC[C@H]3[C@H](C(=O)NCC3CC3)C2)s1 | 1.29% |
| O=C([C@@H]1C[C@@H]2CCN(Cc3ccccn3)C[C@H]2O1)N1CCCO1 | 2.74% |
| Cc1ncsc1CN1CC[C@H]2OCC[C@@]2(C(=O)NC2CC2)C1 | -2.8% |
| O=C(c1ccccc1)N1C[C@H]2CCC[C@@]2(COCc2ccncc2)C1 | 0.753% |
| O=C(c1ccccc1F)N1C[C@H]2CCC[C@@]2(COCc2ccncc2)C1 | -0.88% |
| O=C(C1=CCCC1)N1C[C@H]2CCC[C@@]2(COCc2ccncc2)C1 | 3.16% |
| O=C(NC1COC2(CCN(CC3CCC3)CC2)C1)c1ccccn1 (stereo not given) | 1.22% |
| Cn1cnc2c1C(COCC1CC1)CN(C(=O)c1cscn1)C2 (stereo not given) | -5.14% |
| Cc1ccc(C(=O)N2C[C@@H]3[C@@H](C2)OCC(=O)N3Cc2cccnc2)o1 | -2.11% |
| O=C(c1ccoc1)N1C[C@@H]2[C@@H](C1)OCC(=O)N2Cc1cccnc1 | -3.91% |
| CS(=O)(=O)N1C[C@@H](Oc2ccccn2)[C@H]2OCCC[C@H]21 | -2.17% |
| CCS(=O)(=O)N1C[C@@H](Oc2ccccn2)[C@H]2OCCC[C@H]21 | 25.1% |
| O=C1COC2(CCN(Cc3nccs3)CC2)CN1CC1CC1 | 6.87% |
| Cn1cccc1CN1CCC2(CC1)CCN(C(=O)c1cnccn1)CC2 | 10.8% |
| CCN(CC)CCN1CC[C@H]2OCC[C@@]2(C(=O)N2CCOCC2)C1 | -14.8% |
| Cc1ccc(CN2CCOC3(COCCN(C(C)C)C3)C2)s1 (stereo not given) | 18.3% |
| c1cc(CNCC2OCCc3cn(CC4CC4)nc32)cs1 (stereo not given) | -4.34% |
| Cc1ncsc1CN1Cc2cnn(C)c2C(COCC2CC2)C1 (stereo not given) | -1.88% |
| CN1CC(=O)N(c2cccc(F)c2)CC12CCN(Cc1ccncc1)C2 (stereo not given) | 9.43% |
